According to US20050282824A1, “Substituted pyrimidines as inhibitors of bacterial type III protein secretion systems” (priority 2004, published 2005):

Key:
Assay type in all cases: cell-based
[1] = test system: Type III protein secretion of ExoU by P. aeruginosa PA103; assay: Tertiary assay: Type III-dependent secretion of ExoU by P. aeruginosa PA103; conditions: Pseudomonas aeruginosa, read-out: ExoU IC50(uM)
Summary of the method: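 PA103 grown in deferrated medium with nitrilotriacetic acid to induce Type III secretion, with or without inhibitor, over a prolonged growth period. Supernatant proteins concentrated by ammonium sulfate precipitation, separated by SDS-PAGE, Colloidal Blue-stained; 73.9 kDa ExoU band quantified by imaging relative to untreated controls.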

[2] = test system: SPI1 type III protein secretion of SipB by S. enterica; assay: Secondary assay: Type III-dependent protein secretion of the SipB polypeptide by S. enterica; conditions: Salmonella enterica, read-out: SipB IC50(uM)
Procedure: Secondary assay: Type III-dependent protein secretion of the SipB polypeptide by S. enterica. The SipB protein of S. enterica is another effector of the SPI1 type III protein secretion system from S. enterica. In this cell-based procedure, the Type III-dependent secretion of SipB from the bacterial cytoplasm to the extracellular medium was measured through its reactivity with a cognate mouse monoclonal.
Salmonella enterica cells growing either in the presence or in the absence of inhibitors are induced for the production of SipB. Following an established period of growth the cells are sedimented and the amount of SipB present in the supernatant is quantified with a scanning imager following application of immunoblot techniques. Detection may employ an anti-SipB mouse monoclonal antibody (e.g., obtained from Jorge Galan, SUNY at Stony Brook, N.Y.) followed by treatment with commercially available sheep anti-mouse polyclonal antibody conjugated with horseradish peroxidase. Thereafter the membrane is treated with a peroxidase chemiluminescent substrate and exposed to film for an appropriate exposure time. Inhibition may be measured relative to untreated controls.

[3] = test system: SPI1 type III protein secretion of SopE'-'Bla by Salmonella enterica; assay: Primary assay: Type III protein secretion of the chimeric SopE'-'Bla polypeptide by Salmonella enterica; conditions: read-out: SopE IC50(uM)
Summary of the method: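 S. enterica grown under SPI1-favouring conditions was induced to express SopE′-′Bla (SopE secretion signal fused to signal-less TEM-1 β-lactamase) and cultured with or without compound for a set time. Secreted reporter was quantified by colorimetric hydrolysis of cell-impermeant nitrocefin added to the cultures.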

Structure (SMILES)	IC50 [1]	IC50 [2]	IC50 [3]
O=C(N[C@@H](CSCc1ccccc1)C(=O)O)c1cc(N2CCN(c3ccccc3)CC2)nc(Cl)n1 [Compound 26, (R)-3-Benzylsulfanyl-2-{[2-chloro-6-(4-phenyl-piperazin-1-yl)pyrimidine-4-carbonyl]amino}propionic acid]	> 100 µM	46.8 µM	50.1 µM
CC1CCN(c2nc(C(=O)N[C@@H](CSCc3ccccc3)C(=O)O)cc(N3CCN(c4ccccc4)CC3)n2)CC1 [Compound 27, (R)-3-Benzylsulfanyl-2-{[2-(4-methylpiperidin-1-yl)-6-(4-phenyl-piperazin-1-yl)-pyrimidine-4-carbonyl]amino}propionic acid]	> 100 µM	8.8 µM	5.3 µM
C[C@@H](OCc1ccccc1)[C@H](NC(=O)c1cc(N2CCCCC2)nc(N2CCC(c3ccccc3)CC2)n1)C(=O)O [Compound 30, (2S,3R)-3-Benzyloxy-2-{[2-(4-phenylpiperidin-1-yl)-6-piperidin-1-yl-pyrimidine-4-carbonyl]amino}butyric acid]	> 100 µM	17.9 µM	4.6 µM
O=C(N[C@@H](COCc1ccccc1)C(=O)O)c1cc(-c2ccc(Cl)c(Cl)c2)nc(N2CCN(c3ccccc3)CC2)n1 [Compound 32, (S)-3-Benzyloxy-2-{[6-(3,4-dichlorophenyl)-2-(4-phenyl-piperazin-1-yl)-pyrimidine-4-carbonyl]amino}propionic acid]	40.7 µM	5.7 µM	3.2 µM
Cc1cc(C(=O)NC(CSCc2ccccc2)C(=O)O)nc(-c2ccc(-c3ccccc3)cc2)n1 (stereo not drawn) [Compound 35, 3-Benzylsulfanyl-2-[(2-biphenyl-4-yl-6-methyl-pyrimidine-4-carbonyl)-amino]-propionic acid]	> 100 µM	59.2 µM	17.7 µM
Cc1cc(C(=O)N[C@@H](COCc2ccccc2)C(=O)O)nc(-c2ccc(-c3ccccc3)cc2)n1 [Compound 36, (S)-3-Benzyloxy-2-[(2-biphenyl-4-yl-6-methyl-pyrimidine-4-carbonyl)amino]-propionic acid]	> 100 µM	79.6 µM	32.7 µM
CC1CCN(c2cc(C(=O)N[C@@H](COCc3ccccc3)C(=O)O)nc(-c3ccc(Oc4ccccc4)cc3)n2)CC1 [Compound 38, (S)-3-Benzyloxy-2-{[6-(4-methylpiperidin-1-yl)-2-(4-phenoxyphenyl)pyrimidine-4-carbonyl]amino}propionic acid]	82.8 µM	7.1 µM	1.3 µM
CC1CCN(c2cc(C(=O)NC(Cc3ccc(Cl)cc3)C(=O)O)nc(-c3ccc(Oc4ccccc4)cc3)n2)CC1 (stereo not drawn) [Compound 39, 3-(4-Chlorophenyl)-2-{[6-(4-methylpiperidin-1-yl)-2-(4-phenoxyphenyl)-pyrimidine-4-carbonyl]amino}propionic acid]	74.5 µM	13.2 µM	1.5 µM
CC1CCN(c2cc(C(=O)N[C@@H](CSCc3ccccc3)C(=O)O)nc(-c3ccc(-c4ccccc4)cc3)n2)CC1 [Compound 40, (R)-3-Benzylsulfanyl-2-{[2-biphenyl-4-yl-6-(4-methylpiperidin-1-yl)pyrimidine-4-carbonyl]amino}propionic acid]	61.2 µM	23 µM	5.1 µM
CC1CCN(c2cc(C(=O)N[C@@H](COCc3ccccc3)C(=O)O)nc(-c3ccc(-c4ccccc4)cc3)n2)CC1 [Compound 41, (S)-3-Benzyloxy-2-{[2-biphenyl-4-yl-6-(4-methylpiperidin-1-yl)pyrimidine-4-carbonyl]amino}propionic acid]	67.4 µM	28.6 µM	2.4 µM
CC1CCN(c2cc(C(=O)NC(Cc3ccc(Cl)cc3)C(=O)O)nc(-c3ccc(-c4ccccc4)cc3)n2)CC1 (stereo not drawn) [Compound 42, 2-{[2-Biphenyl-4-yl-6-(4-methylpiperidin-1-yl)pyrimidine-4-carbonyl]amino}-3-(4-chlorophenyl)propionic acid]	> 100 µM	22.3 µM	4.8 µM
O=C(NC(Cc1ccc(Cl)cc1)C(=O)O)c1cc(-c2ccc(C(F)(F)F)cc2)nc(N2CCN(c3ccccn3)CC2)n1 (stereo not drawn) [Compound 43, 3-(4-Chlorophenyl)-2-{[2-(4-pyridin-2-yl-piperazin-1-yl)-6-(4-trifluoromethyl-phenyl)pyrimidine-4-carbonyl]amino}propionic acid]	> 100 µM	74.2 µM	8.1 µM
CC1CCN(c2nc(C(=O)N[C@@H](COCc3ccccc3)C(=O)O)cc(N3CCN(c4nccc(C(F)(F)F)n4)CC3)n2)CC1 [Compound 47, (S)-3-Benzyloxy-2-({2-(4-methylpiperidin-1-yl)-6-[4-(4-trifluoromethylpyrimidin-2-yl)piperazin-1-yl]pyrimidine-4-carbonyl}amino)propionic acid]	> 100 µM	10.4 µM	4.5 µM
CC1CCN(c2nc(C(=O)NC(Cc3ccc(Cl)cc3)C(=O)O)cc(N3CCN(c4nccc(C(F)(F)F)n4)CC3)n2)CC1 (stereo not drawn) [Compound 48, 3-(4-Chlorophenyl)-2-({2-(4-methylpiperidin-1-yl)-6-[4-(4-trifluoromethyl-pyrimidin-yl)piperazin-1-yl]pyrimidine-4-carbonyl}amino)propionic acid]	> 100 µM	40 µM	1.3 µM
CN(C)c1ccc(-c2nc(C(=O)N[C@@H](COCc3ccccc3)C(=O)O)cc(N3CCN(c4nccc(C(F)(F)F)n4)CC3)n2)cc1 [Compound 49, (S)-3-Benzyloxy-2-({2-(4-dimethylaminophenyl)-6-[4-(4-trifluoromethylpyrimidin-2-yl)piperazin-1-yl]pyrimidine-4-carbonyl}amino)propionic acid]	92.6 µM	7.2 µM	5.9 µM
O=C(N[C@@H](COCc1ccccc1)C(=O)O)c1cc(N2CCN(c3nccc(C(F)(F)F)n3)CC2)nc(-c2ccc([N+](=O)[O-])cc2)n1 [Compound 51, (S)-3-Benzyloxy-2-({2-(4-nitrophenyl)-6-[4-(4-trifluoromethylpyrimidin-2-yl)-piperazin-1-yl]pyrimidine-4-carbonyl}amino)propionic acid]	55 µM	84.5 µM	1.9 µM
O=C(NC(Cc1ccc(Cl)cc1)C(=O)O)c1cc(N2CCN(c3nccc(C(F)(F)F)n3)CC2)nc(-c2ccc([N+](=O)[O-])cc2)n1 (stereo not drawn) [Compound 53, 3-(4-Chlorophenyl)-2-({2-(4-nitrophenyl)-6-[4-(4-trifluoromethylpyrimidin-2-yl)-piperazin-1-yl]pyrimidine-4-carbonyl}amino)propionic acid]	40.4 µM	84.6 µM	1.2 µM
O=C(NC(Cc1ccc(Cl)cc1)C(=O)O)c1cc(N2CCN(c3nccc(C(F)(F)F)n3)CC2)nc(-c2ccc(F)cc2)n1 (stereo not drawn) [Compound 56, 3-(4-Chlorophenyl)-2-({2-(4-fluorophenyl)-6-[4-(4-trifluoromethylpyrimidin-2-yl)-piperazin-1-yl]pyrimidine-4-carbonyl}amino)propionic acid]	55.4 µM	4.5 µM	2.2 µM
O=C(N[C@@H](COCc1ccccc1)C(=O)O)c1cc(N2CCN(c3nccc(C(F)(F)F)n3)CC2)nc(-c2ccoc2)n1 [Compound 60, (S)-3-Benzyloxy-2-({2-furan-3-yl-6-[4-(4-trifluoromethylpyrimidin-2-yl)piperazin-1yl]-pyrimidine-4-carbonyl}amino)propionic acid]	> 100 µM	15.6 µM	16.4 µM
O=C(N[C@@H](CSCc1ccccc1)C(=O)O)c1cc(N2CCN(c3nccc(C(F)(F)F)n3)CC2)nc(-c2ccoc2)n1 [Compound 61, (R)-3-Benzylsulfanyl-2-({2-furan-3-yl-6-[4-(4-trifluoromethylpyrimidin-2-yl)-piperazin-1-yl]pyrimidine-4-carbonyl}amino)propionic acid]	> 100 µM	43.2 µM	10.2 µM
